# From publication PMC5897741, “Thermokinetic profile of NDM-1 and its inhibition by small carboxylic acids” (Bioscience Reports, 2018)
# Legend:
# [1] = tested on: CcrA; conditions: cited from earlier work
# [2] = tested on: ImiS; conditions: cited from earlier work
# [3] = tested on: L1; conditions: cited from earlier work
# [4] = target: T1, NDM-1 (Klebsiella pneumoniae, UniProt C7C422); experiment: ITC multi-injection inhibition assay; assay type: biochemical; set-up: made in house; host or cells: E. coli; conditions: for Kiu (uncompetitive inhibition constant): ITC inhibition assay, penicillin G, 25°C, 50 mM Tris–HCl, pH 7.0, 100 mM NaCl; for mode of inhibition: pH 7.0
# Text: Competitive (Kic) and uncompetitive (Kiu) inhibition constant values for each inhibitor were obtained by fitting calculated reaction rates (υ) at different inhibitor concentrations to (eqn 5) using nonlinear regression analysis in Origin software (embedded with ITC), with Kic and Kiu set as shared parameters between all datasets, inhibitor concentration [I], [E]tot, [S] as independent variables and υ as dependent variable.
# [5] = tested on: clinical E. coli–NDM-1 strain; experiment: MIC determination, broth microdilution (CLSI); assay type: cell-based, Escherichia coli; conditions: for synergistic effect with imipenem: 200 and 400 μM inhibitor
# Description: Single colonies of E. coli–NDM-1 were used to inoculate Mueller–Hinton medium and were grown at 37°C overnight. […] Results were obtained after incubating the microtitre plate at 37°C for a further 18 h and turbidity of bacterial growth was recorded using a plate reader.
# [6] = tested on: clinical E. coli strain expressing NDM-1 gene (E. coli–NDM-1); conditions: 400 μM compound, imipenem titrated into E. coli–NDM-1 suspension; efficacy order 7 > 1 > 8
# [7] = target: T1, NDM-1; experiment: biochemical
# Description: Rates were also determined in the presence of inhibitor by pre-incubation with the enzyme for 30 min at RT before starting kinetic experiments. IC50 values were determined using GraphPad Prism5 software (GraphPadSoftware, La Jolla, CA, USA) by plotting percentage of inhibition against inhibitor concentration; average values from three measurements are reported.
# [8] = tested on: IMP-1; conditions: cited from earlier work
# [9] = tested on: CphA; conditions: cited from earlier work
# [10] = target: T1, NDM-1; conditions: ITC, pH 7.0, 25°C
# Text: Successive injections of antibiotic into the sample cell were made at 120 s intervals. Following (eqn 3), the change in thermal power (dQ/dt) from each titration was converted into the reaction rate (υ). These rates were used to fit to the Michaelis–Menten equation (eqn 4) to obtain the kinetic parameters KM (Michaelis–Menten constant) and kcat (turnover rates), where [E]tot is the total concentration of active enzyme. (3) υ=dP/dt=1/VΔHapp⋅dQ/dt (4) υ=kcat[E]tot[S]/KM+[S]
# [11] = target: T1, NDM-1; experiment: ITC single injection assay, enthalpy of β-lactam hydrolysis; assay type: biochemical; set-up: made in house; host or cells: E. coli; conditions: for ΔHapp: NDM-1 catalysed hydrolysis, Tris–HCl pH 7.0, 25°C; for ΔHint: Y-axis intercept of ΔHapp vs ΔHion; for ΔHint / n (number of exchanging protons): pH 7.0; for n (number of exchanging protons): slope of ΔHapp vs ΔHion
# Description: Real-time changes of heat-flow were recorded continuously until return to baseline. Control experiments were performed by titrating substrate to buffer and using those data in corrections for heat of dilution before values of ΔHapp were determined using the embedded Origin software, by dividing integrated heat by the molar quantity of substrate converted according to (eqn 1), where dQ/dt is the rate of heat production, V is the volume of the sample cell and [S]t = 0 is the substrate concentration: (1) ΔH=ft=0∞dQ/dtdt/(V[S](t=0))
# Experiments were also repeated in HEPES and phosphate buffers and the intrinsic enthalpy change (ΔHint) of the reactions calculated according to (eqn 2) by plotting the measured ΔHapp as a function of ΔHion, where ΔHion is the ionisation enthalpy of the buffer used and n represents the number of exchanging protons. The values of ΔHion used in the calculation were ΔHion (Tris–HCl) = 11.34 kcal/mol, ΔHion (HEPES) = 4.88 kcal/mol and ΔHion (phosphate) = 0.86 kcal/mol. (2) ΔHapp=ΔHint+n ΔHion
# [12] = target: T1, NDM-1; set-up: made in house; host or cells: E. coli; method as in doi:10.1016/j.ejbas.2015.07.006; conditions: cited from earlier work
# T1 sequence (C7C422 29-270 limits assumed): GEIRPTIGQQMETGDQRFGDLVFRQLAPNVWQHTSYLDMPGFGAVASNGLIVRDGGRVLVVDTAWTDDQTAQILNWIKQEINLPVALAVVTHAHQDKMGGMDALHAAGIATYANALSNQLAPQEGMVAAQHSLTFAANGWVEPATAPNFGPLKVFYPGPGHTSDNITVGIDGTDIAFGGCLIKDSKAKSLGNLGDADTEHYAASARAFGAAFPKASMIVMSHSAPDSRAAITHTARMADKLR
SMILES,Ki [4] [µM],Kiu (uncompetitive inhibition constant) [4] [µM],mode of inhibition [4],IC50 [7] [µM],Km [10] [µM],kcat [10] [s⁻¹],ΔHapp [11] [kcal/mol],ΔHint [11] [kcal/mol],n (number of exchanging protons) [11],other results
"O=C(O)[C@H]1CS[C@@H](C(=O)O)N1 (racemic) [Compound 8, rac-thiazolidine-2,4-dicarboxylic acid]",152 ± 6,5 ± 0.46,predominantly uncompetitive,3.45 ± 0.26,–,–,–,–,–,effect on activity [1]: powerful effect; Ki ([1]; class B1 CcrA): 0.64 µM; effect on activity [2]: powerful effect; Ki ([2]; class B2 ImiS): 7.1 µM; effect on activity [3]: powerful effect; Ki ([3]; class B3 L1): 1.8 µM; MIC of imipenem in combination with inhibitor ([5]; 200 μM inhibitor): 16 µg/mL; MIC of imipenem in combination with inhibitor ([5]; 400 μM inhibitor): 8 µg/mL; reduction of MIC of imipenem ([5]; 400 μM inhibitor): 2 fold; synergistic effect with imipenem [5]: weaker synergy; inhibition of imipenem turnover in live bacteria [6]: capable of inhibiting the turnover rate of imipenem
"O=C(O)c1cccc(C(=O)O)n1 [Compound 7, pyridine-2,6-dicarboxylic acid]",2.17 ± 0.48,2.07 ± 0.06,mixed inhibitor,1.13 ± 0.04,–,–,–,–,–,inhibition [8]: effective inhibitor; inhibition [9]: effective inhibitor; MIC of imipenem in combination with inhibitor ([5]; 200 μM inhibitor): 4 µg/mL; MIC of imipenem in combination with inhibitor ([5]; 400 μM inhibitor): 1 µg/mL; synergistic effect with imipenem [5]: restore the susceptibility; inhibition of imipenem turnover in live bacteria [6]: capable of inhibiting the turnover rate of imipenem
"C[C@H](CS)C(=O)N1CCC[C@@H]1C(=O)O [Compound 1, D-Captopril, reference compound]",–,178 ± 21,–,–,–,–,–,–,–,–
"Cc1nnc(SCC2=C(C(=O)O)N3C(=O)[C@@H](NC(=O)Cn4cnnn4)[C@H]3SC2)s1 [Cefazolin, cefazolin]",–,–,–,–,237 ± 14,42 ± 1,-28.3 ± 0.97,-5.20 ± 0.04,−1.89 ± 0.04,ΔHapp ([11]; listed as cefazolin): –28.3 kcal/mol
"O=C(O)[C@@H](O)[C@H](O)C(=O)O [Compound 5, D-(−)-tartaric acid]",365 ± 72,993 ± 107,mainly competitive,409 ± 16,–,–,–,–,–,–
Cc1cc(/N=N/c2ccc(O)c(C(=O)O)c2)ccc1O [Compound 2],–,–,–,–,–,–,–,–,–,predicted inhibition in docking [12]: predicted to inhibit NDM-1
"O=C(O)/C=C/C(=O)O [Compound 6, fumaric acid]",198 ± 50,638 ± 94,mainly competitive,232 ± 5,–,–,–,–,–,–
"C[C@@H](O)[C@H]1C(=O)N2C(C(=O)O)=C(SCCN=CN)C[C@H]12 [Imipenem, imipenem]",–,–,–,–,168 ± 28,23 ± 1,-32.5 ± 0.08,-18.4 ± 0.12,−1.24 ± 0.02,"ΔHapp ([11]; listed as imipenem): –32.5 kcal/mol; n (number of exchanging protons) ([11]; listed as imipenem): −1.24 (± 0.02); MIC ([5]; Escherichia coli, 0 μM inhibitor, read-out: MIC of imipenem): 16 µg/mL"
"CC1(C)S[C@@H]2[C@H](NC(=O)Cc3ccccc3)C(=O)N2[C@H]1C(=O)O [Penicillin G, penicillin G]",–,–,–,–,139 ± 12,54 ± 1,-27.9 ± 0.01,-18.3 ± 0.73,−0.87 ± 0.10,ΔHapp ([11]; listed as penicillin G): –27.9 kcal/mol; n (number of exchanging protons) ([11]; listed as penicillin G): −0.87 (± 0.10)
